Reference: patent publication US9242996B2 (Novartis AG, priority 2013, dated 2016)

What follows are compounds tested against activated ERK2 (Homo sapiens (Human), UniProt P28482) (assay: Activated ERK2 (20 pM) Kinase Assay (AlphaScreen, ERKtide phosphorylation)). Details: 0.02 nM ERK2, 400 nM ERKtide peptide, 35 μM ATP, 30 min preincubation.
Format: biochemical
Method: Activated ERK2 (20 pM) Kinase Assay:
The assay was carried out in 20 mM HEPES [pH 7.5], 5 mM MgCl2, 1 mM DTT, 0.01% Tween-20, 0.05% BSA using 0.02 nM ERK2, 400 nM ERKtide peptide and 35 μM ATP (all concentrations are final in the reaction) in a total volume of 10.25 μL. […] Compound dilution series were prepared in 100% DMSO. ERK2 was preincubated with compounds for 30 minutes at ambient temperature. Reaction was initiated by addition of a substrate cocktail of ERKtide peptide and ATP and was allowed to proceed for 4 hours at ambient temperature. Reaction was terminated by addition of 10 μL of a 2× stop buffer consisting of 100 mM Tris-Cl [pH 7.5], 25 mM EDTA, 0.01% Tween 20, 20 μg/mL of AlphaScreen Protein A Acceptor Beads, 20 μg/mL of Streptavidin Donor Beads (PerkinElmer, Waltham, Mass.), and 1:1000 dilution phospho-EGF Receptor (Thr669) antibody (Cat #8808, Cell Signaling Technology, Danvers, Mass.). Terminated reactions were read, after overnight incubation in the dark, on an EnVision Multilabel Plate Reader (PerkinElmer, Waltham, Mass.), with excitation and emission wavelengths set to 680 nm and 570 nm, respectively. IC50 values were determined using a four-parameter fit.

activated ERK2, sequence (P28482 whole entry): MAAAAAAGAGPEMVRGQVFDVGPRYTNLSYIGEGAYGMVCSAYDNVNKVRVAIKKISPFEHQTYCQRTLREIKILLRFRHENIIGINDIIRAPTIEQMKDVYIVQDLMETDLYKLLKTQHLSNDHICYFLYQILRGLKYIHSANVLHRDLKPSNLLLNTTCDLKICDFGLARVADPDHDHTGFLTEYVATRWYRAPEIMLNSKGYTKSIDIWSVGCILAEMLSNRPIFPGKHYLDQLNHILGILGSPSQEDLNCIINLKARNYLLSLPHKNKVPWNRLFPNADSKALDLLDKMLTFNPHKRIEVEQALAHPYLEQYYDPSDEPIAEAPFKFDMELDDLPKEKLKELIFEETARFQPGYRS

| SMILES | IC50 |
| --- | --- |
| Nc1ncc([C@H]2CC[C@@H](O)[C@@H](F)C2)nc1-c1ccc(C(=O)N[C@H](CO)c2cc(F)cc(Br)c2)c(F)c1 [Example 186, 4-(3-amino-6-((1S,3S,4R)-3-fluoro-4-hydroxycyclohexyl)pyrazin-2-yl)-N—((S)-1-(3-bromo-5-fluorophenyl)-2-hydroxyethyl)-2-fluorobenzamide] | 0.653 nM |
| Nc1ncc([C@@H]2CC[C@@H](O)[C@@H](F)C2)nc1-c1ccc(C(=O)N[C@H](CO)c2cc(F)cc(Br)c2)c(F)c1 [Example 187, 4-(3-amino-6-((1R,3S,4R)-3-fluoro-4-hydroxycyclohexyl)pyrazin-2-yl)-N—((S)-1-(3-bromo-5-fluorophenyl)-2-hydroxyethyl)-2-fluorobenzamide] | 0.0363 nM |
| Nc1ncc([C@H]2CC[C@H](O)[C@H](F)C2)nc1-c1ccc(C(=O)N[C@H](CO)c2cc(F)cc(Br)c2)c(F)c1 [Example 188, 4-(3-amino-6-((1S,3R,4S)-3-fluoro-4-hydroxycyclohexyl)pyrazin-2-yl)-N—((S)-1-(3-bromo-5-fluorophenyl)-2-hydroxyethyl)-2-fluorobenzamide] | 0.0469 nM |
| Nc1ncc([C@H]2CC[C@H](O)[C@@H](F)C2)nc1-c1ccc(C(=O)N[C@H](CO)c2cc(F)cc(I)c2)c(F)c1 [Example 189, 4-(3-amino-6-((1S,3S,4S)-3-fluoro-4-hydroxycyclohexyl)pyrazin-2-yl)-2-fluoro-N—((S)-1-(3-fluoro-5-iodophenyl)-2-hydroxyethyl)benzamide] | 0.0139 nM |
| Nc1ncc([C@@H]2CC[C@@H](O)[C@H](F)C2)nc1-c1ccc(C(=O)N[C@H](CO)c2cc(F)cc(I)c2)c(F)c1 [Example 190, 4-(3-amino-6-((1R,3R,4R)-3-fluoro-4-hydroxycyclohexyl)pyrazin-2-yl)-2-fluoro-N—((S)-1-(3-fluoro-5-iodophenyl)-2-hydroxyethyl)benzamide] | 0.0176 nM |
| Nc1ncc([C@H]2CC[C@H](O)CC2)nc1-c1ccc(C(=O)N[C@H]2C[C@@H]2c2ccccc2)c(F)c1 [Example 202, 4-(3-amino-6-((1r,4S)-4-hydroxycyclohexyl)pyrazin-2-yl)-2-fluoro-N-((1S,2R)-2-phenylcyclopropyl)benzamide] | 0.152 nM |
| Nc1ncc([C@H]2CC[C@H](O)CC2)nc1-c1ccc(C(=O)N[C@@H]2C[C@H]2c2ccccc2)c(F)c1 [Example 203, 4-(3-amino-6-((1r,4R)-4-hydroxycyclohexyl)pyrazin-2-yl)-2-fluoro-N-((1R,2S)-2-phenylcyclopropyl)benzamide] | 7.33 nM |
| N#Cc1cc(-c2cc(C3CCOCC3)cnc2N)cc(F)c1C(=O)NCc1ccccc1 [Example 204, 4-(2-amino-5-(tetrahydro-2H-pyran-4-yl)pyridin-3-yl)-N-benzyl-2-cyano-6-fluorobenzamide] | 54.6 nM |
| Cc1nn(C(F)F)cc1-c1cnc(N)c(-c2ccc(C(=O)N[C@H](CO)c3cc(F)cc(CF)c3)c(F)c2)c1 [Example 206, (S)-4-(2-amino-5-(1-(difluoromethyl)-3-methyl-1H-pyrazol-4-yl)pyridin-3-yl)-2-fluoro-N-(1-(3-fluoro-5-(fluoromethyl)phenyl)-2-hydroxyethyl)benzamide] | 0.0104 nM |
| NC[C@@H](NC(=O)c1ccc(-c2nc(C3CCCCC3)cnc2N)cc1F)c1cccc(Cl)c1 [Example 228, (S)-N-(2-amino-1-(3-chlorophenyl)ethyl)-4-(3-amino-6-cyclohexylpyrazin-2-yl)-2-fluorobenzamide] | 0.0505 nM |
| Cn1nccc1-c1cnc(N)c(-c2ccc(C(=O)N[C@H](CN)c3cccc(Cl)c3)c(F)c2)c1 [Example 233, (S)-N-(2-amino-1-(3-chlorophenyl)ethyl)-4-(2-amino-5-(1-methyl-1H-pyrazol-5-yl)pyridin-3-yl)-2-fluorobenzamide] | 0.0209 nM |
| Cn1cc(-c2cnc(N)c(-c3ccc(C(=O)N[C@H](CO)c4cc(F)cc(CF)c4)c(F)c3)c2)cn1 [Example 240, (S)-4-(2-amino-5-(1-methyl-1H-pyrazol-4-yl)pyridin-3-yl)-2-fluoro-N-(1-(3-fluoro-5-(fluoromethyl)phenyl)-2-hydroxyethyl) benzamide] | 0.0199 nM |
| Cn1cc(-c2cnc(N)c(-c3ccc(C(=O)N[C@H](CO)c4ccc(F)c(Cl)c4)c(F)c3)c2)cn1 [Example 241, (S)-4-(2-amino-5-(1-methyl-1H-pyrazol-4-yl)pyridin-3-yl)-N-(1-(3-chloro-4-fluorophenyl)-2-hydroxyethyl)-2-fluorobenzamide] | 0.944 nM |
| Cc1c(-c2cnc(N)c(-c3ccc(C(=O)N[C@H](CO)c4cc(F)cc(CF)c4)c(F)c3)c2)cnn1C [Example 242, (S)-4-(2-amino-5-(1,5-dimethyl-1H-pyrazol-4-yl)pyridin-3-yl)-2-fluoro-N-(1-(3-fluoro-5-(fluoromethyl)phenyl)-2-hydroxyethyl) benzamide] | 0.00875 nM |
| Cc1nn(C)cc1-c1cnc(N)c(-c2ccc(C(=O)N[C@H](CO)c3cc(F)cc(CF)c3)c(F)c2)c1 [Example 243, (S)-4-(2-amino-5-(1,3-dimethyl-1H-pyrazol-4-yl)pyridin-3-yl)-2-fluoro-N-(1-(3-fluoro-5-(fluoromethyl)phenyl)-2-hydroxyethyl) benzamide] | 0.0121 nM |
| Cn1cc(-c2cnc(N)c(-c3ccc(C(=O)N[C@H](CO)C4CCCCC4)c(F)c3)c2)cn1 [Example 244, (S)-4-(2-amino-5-(1-methyl-1H-pyrazol-4-yl)pyridin-3-yl)-N-(1-cyclohexyl-2-hydroxyethyl)-2-fluorobenzamide] | 157 nM |
| Cn1cc(-c2cnc(N)c(-c3ccc(C(=O)N[C@H](CO)c4cc(F)cc(C(F)F)c4)c(F)c3)c2)cn1 [Example 253, (S)-4-(2-amino-5-(1-methyl-1H-pyrazol-4-yl)pyridin-3-yl)-N-(1-(3-(difluoromethyl)-5-fluorophenyl)-2-hydroxyethyl)-2-fluorobenzamide] | 0.106 nM |
| Cn1nccc1-c1cnc(N)c(-c2ccc(C(=O)N[C@H](CO)c3cccc(CF)c3)c(F)c2)c1 [Example 254, (S)-4-(2-amino-5-(1-methyl-1H-pyrazol-5-yl)pyridin-3-yl)-2-fluoro-N-(1-(3-(fluoromethyl)phenyl)-2-hydroxyethyl) benzamide] | 0.0599 nM |
| Cc1nn(C)cc1-c1cnc(N)c(-c2ccc(C(=O)N[C@H](CO)c3cccc(CF)c3)c(F)c2)c1 [Example 255, (S)-4-(2-amino-5-(1,3-dimethyl-1H-pyrazol-4-yl)pyridin-3-yl)-2-fluoro-N-(1-(3-(fluoromethyl)phenyl)-2-hydroxyethyl) benzamide] | 0.0287 nM |
| Cc1c(-c2cnc(N)c(-c3ccc(C(=O)N[C@H](CO)c4cccc(CF)c4)c(F)c3)c2)cnn1C [Example 256, (S)-4-(2-amino-5-(1,5-dimethyl-1H-pyrazol-4-yl)pyridin-3-yl)-2-fluoro-N-(1-(3-(fluoromethyl)phenyl)-2-hydroxyethyl) benzamide] | 0.0258 nM |
| Nc1ncc(C2CCOCC2)nc1-c1ccc(C(=O)N[C@H](CO)c2cccc(CF)c2)c(F)c1 [Example 257, (S)-4-(3-amino-6-(tetrahydro-2H-pyran-4-yl)pyrazin-2-yl)-2-fluoro-N-(1-(3-(fluoromethyl)phenyl)-2-hydroxyethyl) benzamide] | 0.0197 nM |
| Nc1ncc(C2CCOCC2)nc1-c1ccc(C(=O)N[C@H](CO)c2cccc(Br)c2)c(F)c1 [Example 258, (S)-4-(3-amino-6-(tetrahydro-2H-pyran-4-yl)pyrazin-2-yl)-N-(1-(3-bromophenyl)-2-hydroxyethyl)-2-fluorobenzamide] | 0.0343 nM |
| Nc1ncc(C2CCOCC2)nc1-c1ccc(C(=O)N[C@H](CO)c2cc(F)cc(Br)c2)c(F)c1 [Example 259, (S)-4-(3-amino-6-(tetrahydro-2H-pyran-4-yl)pyrazin-2-yl)-N-(1-(3-bromo-5-fluorophenyl)-2-hydroxyethyl)-2-fluorobenzamide] | 0.0127 nM |
| Cc1c(-c2cnc(N)c(-c3ccc(C(=O)N[C@H](CO)c4cccc(CF)c4)c(F)c3)c2)cnn1C(F)F [Example 260, (S)-4-(2-amino-5-(1-(difluoromethyl)-5-methyl-1H-pyrazol-4-yl)pyridin-3-yl)-2-fluoro-N-(1-(3-(fluoromethyl)phenyl)-2-hydroxyethyl) benzamide] | 0.0208 nM |
| Cc1nn(C(F)F)cc1-c1cnc(N)c(-c2ccc(C(=O)N[C@H](CO)c3cccc(CF)c3)c(F)c2)c1 [Example 261, (S)-4-(2-amino-5-(1-(difluoromethyl)-3-methyl-1H-pyrazol-4-yl)pyridin-3-yl)-2-fluoro-N-(1-(3-(fluoromethyl)phenyl)-2-hydroxyethyl) benzamide] | 0.0168 nM |
| Cc1c(-c2cnc(N)c(-c3ccc(C(=O)N[C@H](CO)c4cc(F)cc(CF)c4)c(F)c3)c2)cnn1C(F)F [Example 262, (S)-4-(2-amino-5-(1-(difluoromethyl)-5-methyl-1H-pyrazol-4-yl)pyridin-3-yl)-2-fluoro-N-(1-(3-fluoro-5-(fluoromethyl)phenyl)-2-hydroxyethyl) benzamide] | 0.014 nM |
| Cc1c(-c2cnc(N)c(-c3ccc(C(=O)N[C@H](CO)c4cccc(Cl)c4)c(F)c3)c2)cnn1C(F)F [Example 264, (S)-4-(2-amino-5-(1-(difluoromethyl)-5-methyl-1H-pyrazol-4-yl)pyridin-3-yl)-N-(1-(3-chlorophenyl)-2-hydroxyethyl)-2-fluorobenzamide] | 0.0431 nM |
| Cn1nncc1-c1cnc(N)c(-c2ccc(C(=O)N[C@H](CO)c3cc(F)cc(Br)c3)c(F)c2)c1 [Example 265] | 0.031 nM |
